{"source": "paper PMC7018803", "about": "“A randomized, placebo-controlled, phase 1 study to evaluate the effects of TAK-063 on ketamine-induced changes in fMRI BOLD signal in healthy subjects” (Psychopharmacology, 2019)", "key": {"[1]": {"assay": "Pharmacokinetics of TAK-063 in plasma after single oral dose", "type": "in vivo, human"}, "[2]": {"test_system": "individuals with schizophrenia", "parameters": "method as in Macek et al. [2017]", "conditions": "20 mg; 6-week phase 2 study; ref Macek et al. [2017]; cited from earlier work"}, "[3]": {"test_system": "healthy male subjects", "assay": "Ketamine-induced changes in fMRI BOLD signal during resting state", "type": "in vivo, human", "description": "(§1) Subjects checked in on day − 1 of each treatment period during which vital signs, electrocardiogram (ECG), and laboratory safety tests were repeated. On day 1 of each treatment period, subjects received a 3-, 10-, or 30-mg TAK-063 dose or placebo tablets. Participants then relaxed, slept, or watched movies while remaining in the research environment. Ketamine (0.12 mg/kg intravenous bolus over 60 s followed by a continuous infusion of 0.31 mg/kg/h over approximately 150 min) was administered 4 h after TAK-063 or placebo (Fig. 1). This ketamine dose was based on a previous study that achieved steady-state concentrations of 75 ng/mL and provided a robust BOLD signal with minimal psychotomimetic symptoms (De Simoni et al. [2013]).\n(§2) The scanning protocol for the current study was very comprehensive and included multiple MR approaches. This publication reports the BOLD fMRI data for the working memory task, but also resting state fMRI. The magnetic scanning portion of the neuroimaging test battery was initiated 20 min before ketamine dosing. Imaging was performed using a 3 Tesla Siemens Trio scanner. The MR scanning protocol was initiated 20 min before ketamine dosing; prior to scanning, a structural magnetization prepared rapid gradient echo (MPRAGE) scan was collected. As part of the scanning protocol, each subject received 20 min of scanning − 10 min arterial spin labeling (ASL) plus 10 min resting BOLD prior to ketamine infusion. After ketamine infusion, the resting state fMRI BOLD acquisition continued for an additional 10 min. Next, a Spatial Working Memory task-induced fMRI BOLD acquisition was performed for 15 min. Following these BOLD acquisitions, another 10 min ASL scan was acquired and a 10-min T1 relaxometry scan was conducted. The MR scanning sequence ended with a 5-min MPRAGE acquisition.\nFifty sequential gradient-echo echoplanar images (EPIs) sensitive to blood oxygenation level-dependent (BOLD) signal were collected in contiguous slices of 6-mm thickness, with 3000-ms repetition time, 40-ms echo time, 20 × 20-cm field of view, a 64 × 64 image matrix, 70° flip angle, and an in-plane resolution of 3 × 3 mm. A working memory challenge based on the expectancy A-X Continuous Performance Test (AX-CPT) paradigm was presented. The AX-CPT task was implemented in Eprime and presents 144 trials in four blocks of 36 trials. Before scanning, participants practiced the task (Barch et al. [2001]; MacDonald et al. [2003]).\nWe conducted a number of pre-processing steps to standardize examination of data after acquisition. These steps included (a) using the anatomical image (T1 weighted MPRAGE acquired for each subject at the beginning of the imaging session) to determine the parameters for spatial normalization to the EPI template image supplied with statistical parametric mapping (SPM) using a 12-parameter transformation; (b) registering functional images to correct for subject movement during the experimental paradigm; (c) normalizing functional images to transform images from analyzed subjects into the same standard space; (d) smoothing images (8-mm full width at half maximum [FWHM]) to minimize normalization artifacts and improve signal to noise ratio; (e) applying a high pass filter of 1200 s to the data following spatial smoothing to minimize the influence of very low frequency noise present in fMRI BOLD data without distorting the ketamine response profile. […]"}, "[4]": {"test_system": "healthy male subjects", "assay": "Resting state fMRI BOLD signal before ketamine infusion", "type": "in vivo, human", "conditions": "3-30 mg", "description": "as §1\nThe scanning protocol for the current study was very comprehensive and included multiple MR approaches. This publication reports the BOLD fMRI data for the working memory task, but also resting state fMRI. The magnetic scanning portion of the neuroimaging test battery was initiated 20 min before ketamine dosing. Imaging was performed using a 3 Tesla Siemens Trio scanner. The MR scanning protocol was initiated 20 min before ketamine dosing; prior to scanning, a structural magnetization prepared rapid gradient echo (MPRAGE) scan was collected. […]"}, "[5]": {"test_system": "patients with schizophrenia", "conditions": "cited from earlier work"}, "[6]": {"test_system": "rats", "parameters": "method as in Suzuki et al. [2016]", "conditions": "ref Suzuki et al. [2016]; cited from earlier work"}, "[7]": {"test_system": "anesthetized rats", "parameters": "method as in Tomimatsu et al. [2016]", "conditions": "ref Tomimatsu et al. [2016], cited from earlier work"}, "[8]": {"test_system": "healthy male subjects", "assay": "Ketamine-induced changes in fMRI BOLD signal during working memory task (AX-CPT)", "type": "in vivo, human", "description": "as §1\nas §2, with “acquisition. […]” for “acquisition.”\nThe functional imaging analyses for the working memory task was performed using SPM8 (Wellcome Department of Cognitive Neurology, London, UK). […] Data from each subject for each task were analyzed with a fixed box-car function convolved with a model hemodynamic response function. […]"}}}
{"smiles": "COc1cn(-c2ccc(-n3cccn3)cc2F)nc(-c2ccnn2-c2ccccc2)c1=O", "note": "[TAK-063]", "values": [{"measurement": "Dose proportionality of Cmax and AUC", "setting": "[1]; dose range 3-30 mg", "result": "close to dose proportional increase in exposure"}, {"measurement": "median tmax", "setting": "[1]; single oral dose, plasma, 3-30 mg", "result": 3, "unit": "h"}, {"measurement": "change from baseline in PANSS score at week 6 vs placebo (primary endpoint)", "setting": "[2]", "result": "did not meet its primary endpoint"}, {"measurement": "effect sizes at the 10-mg dose", "setting": "[3]; 10 mg, ketamine-induced BOLD changes, resting state", "result": "generally smaller relative to the effects of other dose groups"}, {"measurement": "effect on ketamine-induced changes in resting state fMRI BOLD signals", "setting": "[3]; many key regions examined, 3-30 mg", "result": "meaningful effect attenuating ketamine-induced changes"}, {"measurement": "effects on fMRI BOLD signal during the resting state before ketamine infusion", "setting": "[4]", "result": "region-specific effects"}, {"measurement": "safety and tolerability in clinical studies", "setting": "[5]; ref Goldsmith et al. [2017], Tsai et al. [2016]", "result": "safe and well tolerated"}, {"measurement": "effects in patients with schizophrenia", "setting": "[5]; ref Macek et al. [2016a], [b]", "result": "increases in electroencephalogram (EEG) gamma power, improvements in mismatch negativity, and some improvements in cognition"}, {"measurement": "MK-801-induced effects on hyperactivity", "setting": "[6]", "result": "reversed"}, {"measurement": "ketamine-induced increases in percent BOLD signal change in cortical regions", "setting": "[7]; anesthetized rats, hippocampus, cingulate and retrosplenial cortex", "result": "reduced"}, {"measurement": "percent BOLD signal change during the resting state in caudate putamen and substantia nigra", "setting": "[7]; rat", "result": "increased"}, {"measurement": "effect size in right substantia nigra, left thalamus and left ventrolateral prefrontal cortex", "setting": "[8]; 10 mg, working memory task, small non-negative effects", "result": "< 0.15"}, {"measurement": "effect in left amygdala", "setting": "[8]; 30 mg, working memory task", "result": "small non-negative effect"}, {"measurement": "effect on Cohen's effect size for fMRI BOLD signal during working memory task", "setting": "[8]; across all doses", "result": "decreased the Cohen’s effect size for fMRI BOLD signal in many brain regions"}]}
